# Earlier results as cited in patent US12458625B2, “Methods and compositions for soft anticholinergic esters” (Bodor Laboratories, Inc., priority 2015, dated 2025).
# Settings: solid oral form
smiles,measurement,setting,value
C[N+]1(C)CCC(OC(=O)C(O)(c2ccccc2)C2CCCC2)C1 (stereo not drawn) [glycopyrrolate],reducing drooling,children,effective in reducing drooling
same,dropped out of the study because of adverse effects to the medication,"children, most with cerebral palsy",over 20%
same,children affected by adverse events,most with cerebral palsy,69%
